# According to patent publication US10676465B2, “GLP-1 receptor agonists and uses thereof” (Pfizer Inc., priority 2018, dated 2020):
# Read-outs that look alike come from different tables or passages of the source.
# What was measured:
# [1] = target: human GLP-1R (Homo sapiens (Human), UniProt P43220, L260F); experiment: CHO GLP-1R Clone C6 - Assay 2 (HTRF cAMP agonist assay, low receptor density); details: for Assay 2 Emax (%) / Emax: arithmetic mean, relative to saturating GLP-1 (1 μM); for Emax: read-out: Assay 2 Emax (%), CHO GLP-1R Clone C6 (low receptor density)
# Sequence of human GLP-1R (Homo sapiens (Human), UniProt P43220, L260F) (P43220 24-463 L260F): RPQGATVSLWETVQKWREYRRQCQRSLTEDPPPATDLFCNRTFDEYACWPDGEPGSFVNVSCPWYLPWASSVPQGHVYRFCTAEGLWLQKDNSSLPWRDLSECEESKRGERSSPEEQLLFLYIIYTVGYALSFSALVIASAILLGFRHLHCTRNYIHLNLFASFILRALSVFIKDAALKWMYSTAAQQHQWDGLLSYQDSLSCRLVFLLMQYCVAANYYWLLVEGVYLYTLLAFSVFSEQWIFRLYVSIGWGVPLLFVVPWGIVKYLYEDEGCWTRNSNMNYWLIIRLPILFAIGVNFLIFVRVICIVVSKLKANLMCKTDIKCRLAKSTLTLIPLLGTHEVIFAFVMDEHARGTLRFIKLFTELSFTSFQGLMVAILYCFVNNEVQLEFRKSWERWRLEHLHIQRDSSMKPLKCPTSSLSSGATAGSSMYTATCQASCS
# Description: CHO GLP-1R Clone C6—Assay 2
# GLP-1R-mediated agonist activity was determined with a cell-based functional assay utilizing an HTRF (Homogeneous Time-Resolved Fluorescence) cAMP detection kit (cAMP HI Range Assay Kit; Cis Bio cat #62AM6PEJ) that measures cAMP levels in the cell. The method is a competitive immunoassay between native cAMP produced by the cells and exogenous cAMP labeled with the dye d2. The tracer binding is visualized by a mAb anti-cAMP labeled with Cryptate. The specific signal (i.e. energy transfer) is inversely proportional to the concentration of cAMP in either a standard or an experimental sample.
# The human GLP-1R coding sequence (NCBI Reference Sequence NP_002053.3, including naturally-occurring variant Leu260Phe) was subcloned into pcDNA5-FRT-TO and a clonal CHO cell line stably expressing a low receptor density was isolated using the Flp-In™ T-Rex™ System, as described by the manufacturer (ThermoFisher).
# Cells were removed from cryopreservation, re-suspended in 40 mL of Dulbecco's Phosphate Buffered Saline (DPBS—Lonza Cat #17-512Q) and centrifuged at 800×g for 5 minutes at 22° C. The DPBS was aspirated, and the cell pellet was re-suspended in 10 mL of complete growth medium (DMEM:F12 1:1 Mixture with HEPES, L-Gln, 500 mL (DMEM/F12 Lonza Cat #12-719F), 10% heat inactivated fetal bovine serum (Gibco Cat #16140-071), 5 mL of 100× Pen-Strep (Gibco Cat #15140-122), 5 mL of 100×L-Glutamine (Gibco Cat #25030-081), 700 μg/mL Hygromycin (Invitrogen Cat #10687010) and 15 μg/mL Blasticidin (Gibco Cat # R21001). A 1 mL sample of the cell suspension in growth media was counted on a Becton Dickinson ViCell to determine cell viability and cell count per mL. The remaining cell suspension was then adjusted with growth media to deliver 1600 viable cells per well using a Matrix Combi Multidrop reagent dispenser, and the cells were dispensed into a white 384 well tissue culture treated assay plate (Corning 3570). The assay plate was then incubated for 48 hours at 37° C. in a humidified environment (95% O2, 5% CO2)
# Varying concentrations of each compound to be tested (in DMSO) were diluted in assay buffer [HBSS with Calcium/Magnesium (Lonza/BioWhittaker cat #10-527F)/0.1% BSA (Sigma Aldrich cat # A7409-1L)/20 mM HEPES (Lonza/BioWhittaker cat #17-737E)] containing 100 μM 3-isobutyl-1-methylxanthin (IBMX; Sigma cat #15879). The final DMSO concentration in the compound/assay buffer mixture is 1%.
# After 48 hours, the growth media was removed from the assay plate wells, and the cells were treated with 20 μL of the serially diluted compound in assay buffer for 30 minutes at 37° C. in a humidified environment (95% O2, 5% CO2). Following the 30 minute incubation, 10 μL of labeled d2 cAMP and 10 μL of anti-cAMP antibody (both diluted 1:20 in cell lysis buffer; as described in the manufacturer's assay protocol) were added to each well of the assay plate. The plates were then incubated at room temperature and after 60 minutes, changes in the HTRF signal were read with an Envision 2104 multi-label plate reader using excitation of 330 nm and emissions of 615 and 665 nm. Raw data were converted to nM cAMP by interpolation from a cAMP standard curve (as described in the manufacturer's assay protocol) and the percent effect was determined relative to a saturating concentration of the full agonist GLP-1 (1 μM) included on each plate. EC50 determinations were made from agonist dose response curves analyzed with a curve fitting program using a 4-parameter logistic dose response equation.
# [2] = target: human GLP-1R (Homo sapiens, UniProt P43220, G168S); experiment: CHO GLP-1R Clone H6 - Assay 1 (HTRF cAMP agonist assay); type: cell-based; details: for EC50: CHO GLP-1R Clone H6, cAMP HTRF, geometric mean
# Sequence of human GLP-1R (Homo sapiens, UniProt P43220, G168S) (P43220 24-463 G168S limits assumed): as the sequence (P43220 24-463 L260F) above, with G145S, F237L counted along it
# [3] = CHO GLP-1R Clone C6 (low receptor density)
# [4] = read-out: Assay 2 EC50, CHO GLP-1R Clone C6 (low receptor density), cAMP HTRF, geometric mean
# [5] = Assay 2 EC50 (nM), CHO GLP-1R Clone C6 (low receptor density), cAMP HTRF, geometric mean
# [6] = CHO GLP-1R Clone H6, arithmetic mean, relative to saturating GLP-1 (1 μM)
# [7] = EC50 in Assay 2, CHO GLP-1R Clone C6, cAMP, geometric mean of replicates
Compound,"Assay 2 Emax (%) [1, 3]","EC50 [1, 4]",EC50 [2],"EC50 [1, 5]",Emax [1],"Emax [2, 6]","Assay 1 Emax (%) [2, 6]","EC50 ([1]; read-out: EC50 in Assay 2, CHO GLP-1R Clone C6, cAMP, geometric mean of replicates)","EC50 [1, 7]"
"CCn1cncc1Cn1c(CN2CCC(c3cccc4c3O[C@](C)(c3ccc(Cl)cc3F)O4)CC2)nc2ccc(C(=O)O)cc21 (single isomer, unassigned) [Example 18, Ammonium 2-({4-[2-(4-chloro-2-fluorophenyl)-2-methyl-1,3-benzodioxol-4-yl]piperidin-1-yl}methyl)-1-[(I-ethyl-1H-imidazol-5-yl)methyl]-1H-benzimidazole-6-carboxylate]",87%,1000 nM,210 nM,,,,,,
"COCCn1c(C2CC23CCN(c2cccc4c2OC(C)(c2ccc(Cl)cc2F)O4)CC3)nc2ccc(C(=O)O)cc21 (single isomer, unassigned) [Example 25, 2-{6-[2-(4-chloro-2-fluorophenyl)-2-methyl-1,3-benzodioxol-4-yl]-6-azaspiro[2.5]oct-1-yl}-1-(2-methoxyethyl)-1H-benzimidazole-6-carboxylic acid]",,,> 20000 nM,> 20000 nM,,,,,
"COCCn1c(C2CC23CCN(c2cccc4c2OC(C)(c2ccc(Cl)cc2F)O4)CC3)nc2ccc(C(=O)O)cc21 (single isomer, unassigned) [Example 26, 2-{6-[2-(4-chloro-2-fluorophenyl)-2-methyl-1,3-benzodioxol-4-yl]-6-azaspiro[2.5]oct-1-yl}-1-(2-methoxyethyl)-1H-benzimidazole-6-carboxylic acid]",,,> 20000 nM,> 20000 nM,,,,,
"CC1(c2ccc(Cl)cc2F)Oc2c(F)ccc(C3CCN(Cc4nc5ccc(C(=O)O)cc5n4C[C@@H]4CCO4)CC3)c2O1 (single isomer, unassigned) [Example 96]",,,1.1 nM,11 nM,93%,85%,,,
"CC1(c2ccc(Cl)cc2F)Oc2c(F)ccc(C3CCN(Cc4nc5ccc(C(=O)O)cc5n4C[C@@H]4CCO4)CC3)c2O1 (single isomer, unassigned) [Example 97]",93%,,14 nM,140 nM,,,86%,,
"COCCn1c(CN2CCC(c3cccc4c3OC(C)(c3ccc(Cl)cc3F)O4)CC2)nc2ncc(C(=O)O)cc21 (stereo not drawn) [Example 3, 2-({4-[2-(4-Chloro-2-fluorophenyl)-2-methyl-1,3-benzodioxol-4-yl]piperidin-1-yl}methyl)-1-(2-methoxyethyl)-1H-imidazo[4,5-b]pyridine-6-Carboxylic Acid]",,45 nM,1.3 nM,,120%,94%,,,
"O=C(O)c1ccc2nc(CN3CCC(c4cccc5c4O[C@H](c4ccc(Cl)cc4F)O5)CC3)n(C[C@@H]3CCO3)c2c1 [Example 4, Ammonium 2-({4-[(2R)-2-(4-chloro-2-fluorophenyl)-1,3-benzodioxol-4-yl]piperidin-1-yl}methyl)-1-[(2S)-oxetan-2-ylmethyl]-1H-benzimidazole-6-carboxylate]",,> 20000 nM,1600 nM,,,87%,,> 20000 nM,
"O=C(O)c1ccc2nc(CN3CCC(c4cccc5c4O[C@@H](c4ccc(Cl)cc4F)O5)CC3)n(C[C@@H]3CCO3)c2c1 [Example 5, Ammonium 2-({4-[(2S)-2-(4-chloro-2-fluorophenyl)-1,3-benzodioxol-4-yl]piperidin-1-yl}methyl)-1-[(2S)-oxetan-2-ylmethyl]-1H-benzimidazole-6-carboxylate]",,23 nM,1.3 nM,,97%,89%,,,20 nM
"C[C@@]1(c2ccc(Cl)cc2F)Oc2cccc(C3CCN(Cc4nc5ccc(C(=O)O)cc5n4C[C@@H]4CCO4)CC3)c2O1 [Example 6, Ammonium 2-({4-[(2R)-2-(4-chloro-2-fluorophenyl)-2-methyl-1,3-benzodioxol-4-yl]piperidin-1-yl}methyl)-1-[(2S)-oxetan-2-ylmethyl]-1H-benzimidazole-6-carboxylate]",,,140 nM,2400 nM,89%,89%,,,2400 nM
"C[C@]1(c2ccc(Cl)cc2F)Oc2cccc(C3CCN(Cc4nc5ccc(C(=O)O)cc5n4C[C@@H]4CCO4)CC3)c2O1 [Example 7, Ammonium 2-({4-[(2S)-2-(4-chloro-2-fluorophenyl)-2-methyl-1,3-benzodioxol-4-yl]piperidin-1-yl}methyl)-1-[(2S)-oxetan-2-ylmethyl]-1H-benzimidazole-6-carboxylate]",,,0.26 nM,3.1 nM,93%,98%,,,2.9 nM
"CN(C)CCn1c(CN2CCC(c3cccc4c3OC(C)(c3ccc(Cl)cc3F)O4)CC2)nc2ccc(C(=O)O)cc21 (stereo not drawn) [Example 12, 2-({4-[2-(4-Chloro-2-fluorophenyl)-2-methyl-1,3-benzodioxol-4-yl]piperidin-1-yl}methyl)-1-[2-(dimethylamino)ethyl]-1H-benzimidazole-6-carboxylic Acid]",,,29 nM,690 nM,92%,83%,,,
"CC1(c2ccc(Cl)cc2F)Oc2cccc(C3CCN(Cc4nc5ccc(C(=O)O)nc5n4Cc4ncco4)CC3)c2O1 (stereo not drawn) [Example 13, 2-({4-[2-(4-Chloro-2-fluorophenyl)-2-methyl-1,3-benzodioxol-4-yl]piperidin-1-yl}methyl)-3-(1,3-oxazol-2-ylmethyl)-3H-imidazo[4,5-b]pyridine-5-carboxylic Acid]",,,4.5 nM,38 nM,110%,95%,,,
"Cn1c(CN2CCC(c3cccc4c3O[C@@](C)(c3ccc(Cl)cc3F)O4)CC2)nc2ccc(C(=O)O)cc21 [Example 14, 2-({4-[(2S)-2-(4-Chloro-2-fluorophenyl)-2-methyl-1,3-benzodioxol-4-yl]piperidin-1-yl}methyl)-1-methyl-1H-benzimidazole-6-carboxylic Acid]",,79 nM,7 nM,,85%,95%,,,
"COCCn1c(CN2CCN(c3cccc4c3OC(C)(c3ccc(Cl)cc3F)O4)CC2)nc2ccc(C(=O)O)cc21 (stereo not drawn) [Example 19, 2-({4-[2-(4-chloro-2-fluorophenyl)-2-methyl-1,3-benzodioxol-4-yl]piperazin-1-yl}methyl)-1-(2-methoxyethyl)-1H-benzimidazole-6-carboxylic acid]",,25 nM,1.2 nM,,100%,87%,,,
"COCCn1c(CN2CCC(c3cccc4c3OC(c3ccc(Cl)cc3F)O4)CC2)nc2ccc(C(=O)O)cc21 (stereo not drawn) [Example 20, 2-({4-[2-(4-chloro-2-fluorophenyl)-1,3-benzodioxol-4-yl]piperidin-1-yl}methyl)-1-(2-methoxyethyl)-1H-benzimidazole-6-carboxylic acid]",,270 nM,17 nM,,100%,85%,,,
"COCCn1c(CN2CCC(c3cccc4c3OC(c3ccc(Cl)cc3F)O4)CC2)nc2ccc(C(=O)O)cc21 (stereo not drawn) [Example 21, 2-({4-[2-(4-chloro-2-fluorophenyl)-1,3-benzodioxol-4-yl]piperidin-1-yl}methyl)-1-(2-methoxyethyl)-1H-benzimidazole-6-carboxylic acid]",,,> 20000 nM,> 20000 nM,,,,,
"COCCn1c(CN2CCC(c3cccc4c3OC(C)(c3ccc(Cl)cc3F)O4)CC2)nc2ccc(C(=O)O)cc21 (stereo not drawn) [Example 24, 2-({4-[2-(4-chloro-2-fluorophenyl)-2-methyl-1,3-benzodioxol-4-yl]piperidin-1-yl}methyl)-1-(2-methoxyethyl)-1H-benzimidazole-6-carboxylic acid]",,49 nM,1.4 nM,,110%,82%,,,
"COCCn1c(CN2CCC(c3cccc4c3OC(c3ccc(C#N)cc3F)O4)CC2)nc2ccc(C(=O)O)cc21 (stereo not drawn) [Example 27, 2-({4-[2-(4-cyano-2-fluorophenyl)-1,3-benzodioxol-4-yl]piperidin-1-yl}methyl)-1-(2-methoxyethyl)-1H-benzimidazole-6-carboxylic acid]",,1000 nM,61 nM,,100%,98%,,,
"CCc1ccc(C2(C)Oc3cccc(C4CCN(Cc5nc6ccc(C(=O)O)cc6n5CCOC)CC4)c3O2)cc1 (stereo not drawn) [Example 29, 2-({4-[2-(4-ethylphenyl)-2-methyl-1,3-benzodioxol-4-yl]piperidin-1-yl}methyl)-1-(2-methoxyethyl)-1H-benzimidazole-6-carboxylic acid]",,150 nM,5.3 nM,,93%,87%,,,
"COCCn1c(CN2CCC(c3cccc4c3OC(C)(c3ccc(OC)c(F)c3)O4)CC2)nc2ccc(C(=O)O)cc21 (stereo not drawn) [Example 30, 2-({4-[2-(3-fluoro-4-methoxyphenyl)-2-methyl-1,3-benzodioxol-4-yl]piperidin-1-yl}methyl)-1-(2-methoxyethyl)-1H-benzimidazole-6-carboxylic acid]",,1100 nM,45 nM,,77%,86%,,,
"COCCn1c(CN2CCC(c3cccc4c3OC(C)(c3cccc(F)c3)O4)CC2)nc2ccc(C(=O)O)cc21 (stereo not drawn) [Example 31, 2-({4-[2-(3-fluorophenyl)-2-methyl-1,3-benzodioxol-4-yl]piperidin-1-yl}methyl)-1-(2-methoxyethyl)-1H-benzimidazole-6-carboxylic acid]",,1900 nM,190 nM,,65%,88%,,,
"COCCn1c(CN2CCC(c3cccc4c3OC(C)(c3ccc(OC)cc3)O4)CC2)nc2ccc(C(=O)O)cc21 (stereo not drawn) [Example 32, 1-(2-methoxyethyl)-2-({4-[2-(4-methoxyphenyl)-2-methyl-1,3-benzodioxol-4-yl]piperidin-1-yl}methyl)-1H-benzimidazole-6-carboxylic acid]",,450 nM,18 nM,,87%,86%,,,
